Reference: PubChem BioAssay (NCI)
Where “and” joins values, the source holds several entries; their conditions need not be identical. Identical values can stand only once.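 48-hour exposure; five concentrations; linearly interpolated endpoints. Abbreviation: GI50, concentration required for 50% inhibition of growth. The concentration for full growth arrest is given as TGI.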

Columns and labels:
Test in all cases: inhibition of tumour cell growth, NCI panel, 48 h
[1] = system: SK-MEL-28 melanoma
[2] = system: SK-MEL-5 melanoma
[3] = system: COLO 205 colon
[4] = system: HCT-15 colon
[5] = system: ACHN renal
[6] = system: CAKI-1 renal
[7] = system: HS 578T breast
[8] = system: LOX IMVI melanoma
[9] = system: HL-60(TB) leukemia
[10] = system: SF-539 CNS

Row | Compound | GI50 [1] | TGI [1] | GI50 [2] | TGI [2] | GI50 [3] | TGI [3] | GI50 [4] | TGI [4] | GI50 [5] | TGI [5] | GI50 [6] | TGI [6] | GI50 [7] | TGI [7] | GI50 [8] | TGI [8] | GI50 [9] | TGI [9] | GI50 [10] | TGI [10]
1 | N=c1c2c(-c3ccccc3)c(-c3ccccc3)n(Cc3ccccc3)c2ncn1C1CCC(O)CC1 (centres undefined) | 624 nM | 2220 nM | 511 nM | 1850 nM | 417 nM | 2230 nM | 270 nM | 14700 nM | 65.3 nM | 12800 nM | 147 nM | 1890 nM | 1570 nM | 23800 nM | 140 nM | 1690 nM | 1190 nM | 3660 nM | 639 nM | 2240 nM
2 | O=C(Nc1cc(C(F)(F)F)cc(C(F)(F)F)c1)c1cc(Cl)ccc1O | 285 nM and 199 nM | 1840 nM and 1310 nM | 63.2 nM and 94 nM | 206 nM and 257 nM | 696 nM and 1340 nM | 2340 nM and 3220 nM | 271 nM and 276 nM | 1620 nM and 1490 nM | 294 nM and 260 nM | 1190 nM and 978 nM | 212 nM and 180 nM | 644 nM and 677 nM | 222 nM and 212 nM | 807 nM and 821 nM | 316 nM and 366 nM | 1510 nM and 2680 nM | 201 nM and 239 nM | 1690 nM and 641 nM | 300 nM and 264 nM | 1880 nM and 1590 nM
3 | CN(C)C1CCN(C(=O)c2ccc(NC(=O)Nc3ccc(-c4nc(N5CCOCC5)c5cccn5n4)cc3)cc2)CC1 | 72.4 nM | 849 nM | 153 nM | 662 nM | 53.5 nM | 1420 nM | 2770 nM | > 50700 nM | 1050 nM | 13000 nM | 3390 nM | 20800 nM | 19.2 nM | 92.6 nM | 26.7 nM | 1190 nM | 105 nM | 1760 nM | 45.3 nM | 406 nM
4 | O=c1c(F)cn(Cc2ccc(C34CC5CC(CC(C5)C3)C4)c(O)c2)c(=O)n1Cc1ccc(C23CC4CC(CC(C4)C2)C3)c(O)c1 | 17700 nM | 32300 nM | 13900 nM | 27000 nM | 18000 nM | 37500 nM | 13600 nM | 26500 nM | 13500 nM | 26300 nM | 17500 nM | 31600 nM | 11500 nM | 56400 nM | 6980 nM | 20000 nM | 8320 nM | 54200 nM | 11500 nM | 24400 nM
5 | COc1cc(N(CCC#N)CCC#N)ccc1/C(N=Nc1ccc(Cl)cc1)=N/NC(=O)c1cc(Br)ccc1O | > 150 µg/mL | > 150 µg/mL | 82 µg/mL | > 150 µg/mL | 41.7 µg/mL | 127 µg/mL | 32.7 µg/mL | 66.4 µg/mL | 86.1 µg/mL | > 150 µg/mL | 51.2 µg/mL | > 150 µg/mL | 125 µg/mL | > 150 µg/mL | 49.3 µg/mL | > 150 µg/mL | 62.1 µg/mL | > 150 µg/mL | 73.3 µg/mL | > 150 µg/mL
6 | CCN(CC)CCNc1nc(N)c(C#N)c(C#N)c1C#N |  | > 10000 nM |  | > 10000 nM |  | > 10000 nM |  | > 10000 nM |  | > 10000 nM |  | > 10000 nM |  | > 10000 nM |  | > 10000 nM |  | > 10000 nM |  | > 10000 nM
7 | COc1ccc2nc3ccccc3c(NCc3ccc(F)cc3)c2c1 | 2900 nM | 9270 nM | 2000 nM | 7200 nM | 1110 nM | 2780 nM | 1540 nM | 5230 nM | 1820 nM | 6680 nM | 1730 nM | 7050 nM | 2220 nM | 12100 nM | 841 nM | 1710 nM | 1170 nM | 2800 nM | 1760 nM | 6540 nM
8 | Clc1cc2c(c(CSc3nc4ccccc4n4cccc34)c1)OCOC2 | > 100000 nM | > 100000 nM | > 100000 nM | > 100000 nM | > 100000 nM | > 100000 nM | 2700 nM | > 100000 nM | 67300 nM | > 100000 nM | > 100000 nM | > 100000 nM | 5610 nM | 45000 nM | > 100000 nM | > 100000 nM | > 100000 nM | > 100000 nM | 22900 nM | > 100000 nM
9 | C[C@@H]1C[C@@H]([C@@H](CC2CC(=O)NC(=O)C2)OC(=O)CC(=O)c2ccccc2)C(=O)[C@@H](C)C1 | 752 nM | > 29600 nM | 661 nM | > 100000 nM | 849 nM | > 100000 nM | 809 nM | > 100000 nM | 77.7 nM | > 100000 nM | 252 nM |  | 604 nM | 10900 nM | 646 nM | > 100000 nM | 402 nM | > 100000 nM | 521 nM | 16600 nM
10 | COC(=O)c1ccc2c(c1)C(=O)c1c-2n(CCCN=[N+]=[N-])c(=O)c2cc(OC)c(OC)cc12 | > 100000 nM | > 100000 nM | > 100000 nM | > 100000 nM | > 100000 nM | > 100000 nM | > 100000 nM | > 100000 nM | > 100000 nM | > 100000 nM | > 100000 nM | > 100000 nM | > 100000 nM | > 100000 nM | > 100000 nM | > 100000 nM | 91900 nM | > 100000 nM | > 100000 nM | > 100000 nM
11 | COC(=O)[C@]12CC[C@@H](C)[C@H](C)[C@@H]1C1=CC[C@@H]3[C@@]4(C)C[C@@H](O)[C@H](O)[C@@](C)(CO)C4=CC[C@@]3(C)[C@]1(C)CC2 | 19200 nM | 40900 nM | 12800 nM | 27300 nM | 17900 nM | 34400 nM | 15100 nM | 31000 nM | 17700 nM | 33800 nM | 15600 nM | 29800 nM | 17900 nM | 36400 nM | 16800 nM | 34900 nM | 16800 nM | 34700 nM | 17700 nM | 34600 nM
